Assay results reported in article PMC2746281 (PLoS ONE, 2009).
Like-named read-outs stand apart in the source and are kept apart here.

What was measured:
Ba/F3 cells = experiment: IL-3-stimulated proliferation of Ba/F3 cells expressing human wild-type KIT; assay type: cell-based; conditions: Mus musculus, BaF3, read-out: IC50 for inhibition of IL-3-stimulated proliferation
Procedure: Cells were grown for 48 hours at 37°C and then incubated with 10 µl/well of WST-1 reagent (Roche Applied Science, France) for 3 hours at 37°C. The amount of formazan dye formed was quantified by its absorbance at 450 nm using a scanning multiwell spectrophotometer (MultiSkan MS, Thermo-LabSystems, France). A blank well without cells was used as a background control for the spectrophotometer and all assays were performed in triplicate.

CBMC = CBMC cell viability; assay type: cell-based, human; conditions: incubation of CBMC for up to 9 hours
recombinant human KIT = recombinant human KIT (Homo sapiens, UniProt P10721)
recombinant human KIT, sequence (P10721 567-976): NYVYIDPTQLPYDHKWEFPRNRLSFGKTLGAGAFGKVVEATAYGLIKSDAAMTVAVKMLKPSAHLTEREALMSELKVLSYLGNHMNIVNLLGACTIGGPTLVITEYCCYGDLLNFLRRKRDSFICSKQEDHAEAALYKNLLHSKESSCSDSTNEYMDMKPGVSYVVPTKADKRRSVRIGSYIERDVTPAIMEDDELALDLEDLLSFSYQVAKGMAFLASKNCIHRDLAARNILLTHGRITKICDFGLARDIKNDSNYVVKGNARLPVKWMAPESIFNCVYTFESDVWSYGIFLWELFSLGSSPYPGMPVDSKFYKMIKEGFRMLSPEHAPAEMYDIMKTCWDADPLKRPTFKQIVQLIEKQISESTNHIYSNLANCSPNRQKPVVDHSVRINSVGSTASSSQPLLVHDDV
Procedure: Tyrosine phosphorylation by KIT was assayed by measuring the incorporation of phosphate into poly(Glu,Tyr 4∶1). […] Recombinant human KIT tyrosine kinase assays were performed using an ELISA-based assay with poly(Glu,Tyr 4∶1) as a substrate.
A 96-well microtitre plate (Immulon 2HB; ThermoLifeScience, Finland) was coated overnight with 0.25 mg/ml poly(Glu,Tyr 4:1), rinsed twice with 250 µl of washing buffer (10 mM phosphate-buffered saline [pH 7.4] and 0.05% Tween 20) and dried for 2 hours at room temperature. […] Reactions were initiated upon introduction of the enzyme and terminated with the addition of one reaction volume (50 μl) of 100 mM EDTA per 5 M urea mix. Plates were washed three times and incubated with 1:30,000 horseradish peroxidase-conjugated anti-phosphotyrosine monoclonal antibody (Sigma-Aldrich, France), then washed three times and incubated with tetramethylbenzidine. The final reaction product was quantified by spectrophotometry at 450 nm.

Solubility = assay type: physicochemical
Text: The chemical name is 4-(4-methylpiperazin-1-ylmethyl)-N-[4-methyl-3-(4-pyridin-3ylthiazol-2-ylamino) phenyl]benzamide-mesylate methane sulfonic acid salt, and the chemical formula is C28H30N6OS·CH4O3S (Figure 1A). […] Fresh dilutions of masitinib were made for each experiment. The imatinib used in this study was purchased from Sequoia Research (UK).

mouse bone marrow cells = experiment: Chromosome / mitotic apparatus damage in mouse bone marrow cells; assay type: in vivo; conditions: two daily administrations at 437.5, 875, or 1750 mg/kg/day, our unpublished results
[1] = biological target: Fibroblast growth factor receptor 1 (Homo sapiens, UniProt P11362); experiment: Recombinant kinase ELISA assay, FGFR1; assay type: biochemical; parameters: fibroblast growth factor receptor 1 (572–959; BC018128); 6xHN (N); made in house; host or cells: baculovirus, Sf9 insect cells; conditions: recombinant human enzyme; ELISA-based assay, poly(Glu,Tyr 4:1) substrate
Fibroblast growth factor receptor 1, sequence (P11362 434-822 limits assumed): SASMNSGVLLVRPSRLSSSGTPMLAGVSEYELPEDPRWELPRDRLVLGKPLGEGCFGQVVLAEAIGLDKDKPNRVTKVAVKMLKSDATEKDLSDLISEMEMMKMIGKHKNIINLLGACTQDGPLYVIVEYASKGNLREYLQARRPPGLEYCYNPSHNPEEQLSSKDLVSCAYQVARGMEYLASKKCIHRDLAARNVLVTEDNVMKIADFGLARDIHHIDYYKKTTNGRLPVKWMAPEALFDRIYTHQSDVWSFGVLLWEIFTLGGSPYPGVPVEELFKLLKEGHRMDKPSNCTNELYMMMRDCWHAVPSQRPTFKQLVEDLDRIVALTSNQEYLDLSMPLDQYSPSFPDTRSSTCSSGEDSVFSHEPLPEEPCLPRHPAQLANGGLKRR
Procedure: Full details for the generation of recombinant human KIT intracellular domain and other protein kinases (including Lyn, platelet derived growth factor receptor β, epidermal growth factor receptor, fibroblast growth factor receptor 1, Src, HCK, PYK, FES, Btk, Bmx, c-Ret, c-Fms, Syk, and c-Met) are provided in the Supplemental Methods (see Supporting Information; Methods S1). Experiments on ABL1, Akt1, protein kinase C-α, insulin-like growth factor receptor 1, and Pim1 were carried out by Proqinase (Germany). All other recombinant protein kinases were performed in-house using an enzyme-linked immunoassay; experimental details are provided in the Supplemental Methods (see Supporting Information; Methods S1).
The sequences encoding PDGF receptor β (residues 554–1106; GenBank accession no. BC032224), Lyn B (2–583; accession no. BC059394), fibroblast growth factor receptor 1 (572–959; accession no. BC018128), Src (2–536; accession no. BC011566), Btk (2–659; accession no. BC109079), Bmx (2–675; accession no. BC016652), c-Ret (713–1114; accession no. BC004257), c-Fms (538–972; BC047531), Syk (2–612; BC011399), Hck (2-526; accession no. BC014435), Fes (2-822; accession no. BC035357), PYK2 (2-1006; accession no. BC042599) and c-Met (949–1398; accession no. lifeseq3489592) were amplified by PCR from IMAGE cDNA clones purchased from Openbiosystems. […]

Alk = biological target: T1, Alk (Homo sapiens, UniProt Q9UM73); experiment: Ba/F3 cell proliferation (WST-1), Alk; conditions: Ba/F3 cells expressing the enzyme, read-out: Cell-based assay IC50, Alk
T1 construct: expressed in transfected cells; host or cells: Ba/F3
T1 sequence (Q9UM73 19-1620, species assumed): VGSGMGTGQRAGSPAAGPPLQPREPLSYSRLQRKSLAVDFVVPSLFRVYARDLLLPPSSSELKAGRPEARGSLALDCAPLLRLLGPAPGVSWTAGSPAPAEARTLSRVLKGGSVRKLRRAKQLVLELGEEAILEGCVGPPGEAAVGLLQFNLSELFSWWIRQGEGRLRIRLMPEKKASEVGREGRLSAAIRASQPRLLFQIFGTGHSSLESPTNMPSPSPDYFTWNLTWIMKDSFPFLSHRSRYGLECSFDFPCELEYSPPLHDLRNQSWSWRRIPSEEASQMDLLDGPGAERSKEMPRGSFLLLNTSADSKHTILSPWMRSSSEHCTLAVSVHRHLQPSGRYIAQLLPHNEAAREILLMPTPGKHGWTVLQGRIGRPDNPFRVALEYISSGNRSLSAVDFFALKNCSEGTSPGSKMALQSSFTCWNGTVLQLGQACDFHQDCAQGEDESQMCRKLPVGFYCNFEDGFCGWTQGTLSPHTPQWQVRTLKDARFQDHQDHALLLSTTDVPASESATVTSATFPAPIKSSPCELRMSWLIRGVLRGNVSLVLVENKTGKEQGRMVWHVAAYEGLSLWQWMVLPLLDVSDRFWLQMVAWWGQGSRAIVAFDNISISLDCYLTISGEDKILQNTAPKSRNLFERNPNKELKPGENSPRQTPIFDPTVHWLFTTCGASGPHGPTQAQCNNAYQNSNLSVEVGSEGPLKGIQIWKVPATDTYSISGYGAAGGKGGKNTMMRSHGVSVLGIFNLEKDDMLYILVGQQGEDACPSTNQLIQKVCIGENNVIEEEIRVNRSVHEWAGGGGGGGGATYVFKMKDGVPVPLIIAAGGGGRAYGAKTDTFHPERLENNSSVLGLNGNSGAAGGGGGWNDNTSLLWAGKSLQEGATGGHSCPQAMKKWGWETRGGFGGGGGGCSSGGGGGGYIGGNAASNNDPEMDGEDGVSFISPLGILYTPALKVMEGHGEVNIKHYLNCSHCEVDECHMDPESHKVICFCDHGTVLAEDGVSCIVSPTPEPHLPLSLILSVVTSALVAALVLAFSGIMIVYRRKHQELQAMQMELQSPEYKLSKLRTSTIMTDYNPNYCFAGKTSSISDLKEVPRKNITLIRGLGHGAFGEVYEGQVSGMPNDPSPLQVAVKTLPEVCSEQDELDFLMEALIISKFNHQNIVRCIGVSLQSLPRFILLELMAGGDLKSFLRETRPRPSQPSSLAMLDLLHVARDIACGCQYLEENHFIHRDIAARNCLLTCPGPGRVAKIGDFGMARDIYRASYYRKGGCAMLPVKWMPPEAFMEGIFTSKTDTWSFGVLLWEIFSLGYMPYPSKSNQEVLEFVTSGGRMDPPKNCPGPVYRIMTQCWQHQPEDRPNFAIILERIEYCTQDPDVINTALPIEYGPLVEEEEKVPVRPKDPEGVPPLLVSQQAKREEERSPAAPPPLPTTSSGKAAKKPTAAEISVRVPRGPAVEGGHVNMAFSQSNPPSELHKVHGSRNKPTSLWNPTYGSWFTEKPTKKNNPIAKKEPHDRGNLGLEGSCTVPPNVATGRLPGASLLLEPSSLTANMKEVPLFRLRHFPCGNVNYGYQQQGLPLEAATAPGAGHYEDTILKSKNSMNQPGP

Jak3 = biological target: T2, Jak3 (Homo sapiens, UniProt P52333); experiment: Ba/F3 cell proliferation (WST-1), Jak3; conditions: Ba/F3 cells expressing the enzyme, read-out: Cell-based assay IC50, Jak3
T2 construct: expressed in transfected cells; host or cells: Ba/F3
T2 sequence (P52333 whole entry, species assumed): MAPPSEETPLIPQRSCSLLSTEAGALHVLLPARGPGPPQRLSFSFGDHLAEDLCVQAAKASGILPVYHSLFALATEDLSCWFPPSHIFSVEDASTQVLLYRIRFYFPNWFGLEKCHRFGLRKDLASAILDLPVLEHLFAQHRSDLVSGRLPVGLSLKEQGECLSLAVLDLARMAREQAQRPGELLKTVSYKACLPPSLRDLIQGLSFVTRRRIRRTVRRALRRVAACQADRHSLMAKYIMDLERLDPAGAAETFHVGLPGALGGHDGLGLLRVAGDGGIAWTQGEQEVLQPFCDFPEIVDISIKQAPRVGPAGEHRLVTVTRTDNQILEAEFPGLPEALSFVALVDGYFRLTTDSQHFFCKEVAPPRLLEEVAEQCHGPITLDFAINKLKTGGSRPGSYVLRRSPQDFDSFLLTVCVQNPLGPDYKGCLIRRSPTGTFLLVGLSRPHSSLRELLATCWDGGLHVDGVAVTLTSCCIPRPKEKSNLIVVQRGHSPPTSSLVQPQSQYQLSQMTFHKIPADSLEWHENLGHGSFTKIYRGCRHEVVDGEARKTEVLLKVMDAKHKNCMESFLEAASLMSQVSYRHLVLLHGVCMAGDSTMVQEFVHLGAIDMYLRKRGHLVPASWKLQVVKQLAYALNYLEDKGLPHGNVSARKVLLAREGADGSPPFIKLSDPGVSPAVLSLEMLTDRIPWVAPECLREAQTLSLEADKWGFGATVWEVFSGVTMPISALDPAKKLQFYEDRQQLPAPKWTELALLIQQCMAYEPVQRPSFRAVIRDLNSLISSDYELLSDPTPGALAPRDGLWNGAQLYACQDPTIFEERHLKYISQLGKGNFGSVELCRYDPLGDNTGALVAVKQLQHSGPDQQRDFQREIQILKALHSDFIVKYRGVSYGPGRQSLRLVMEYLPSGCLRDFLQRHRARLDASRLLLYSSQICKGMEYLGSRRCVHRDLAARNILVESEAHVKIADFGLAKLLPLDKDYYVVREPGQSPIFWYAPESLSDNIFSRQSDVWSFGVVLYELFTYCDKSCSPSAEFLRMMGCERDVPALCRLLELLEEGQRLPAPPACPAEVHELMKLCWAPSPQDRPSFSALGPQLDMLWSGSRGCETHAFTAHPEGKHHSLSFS

## CS(=O)(=O)O.CS(=O)(=O)O.Cc1ccc(NC(=O)c2ccc(CN3CCN(C)CC3)cc2)cc1Nc1nc(-c2cccnc2)cs1 [masitinib, 4-(4-methylpiperazin-1-ylmethyl)-N-[4-methyl-3-(4-pyridin-3ylthiazol-2-ylamino)phenyl]benzamide-mesylate methane sulfonic acid salt]
Ba/F3 cells
  IC50: > 5 µM
CBMC
  effect on cell viability: no affect on cell viability
Recombinant human KIT; concentrations ≤500 nM
  mechanism of inhibition against ATP: competitive inhibitor against ATP
Recombinant human KIT; higher concentrations (>1 µM)
  mechanism of inhibition against ATP: mixed mechanism of inhibition against ATP
Solubility; 0.1 M HCl
  solubility: freely soluble
Solubility; 0.1 M NaOH
  solubility: practically insoluble
Solubility; dimethylsulfoxide
  solubility: freely soluble
Solubility; ethanol
  solubility: slightly soluble
Solubility; n-hexane
  solubility: practically insoluble
Solubility; propylene glycol
  solubility: slightly soluble
Solubility; water
  solubility: soluble
Mouse bone marrow cells
  damage to chromosomes or the mitotic apparatus: does not cause damage to chromosomes or the mitotic apparatus
[1]
  IC50: > 10 µM
Alk
  IC50: 9 ± 0.18 µM
Jak3
  IC50: 10 ± 0.5 µM
